Test system: Human gastric cancer cells MGC-803
Experiment: In vivo efficacy test of 17bNF Crystal Form 0 and Form II, MGC-803 xenograft in nude mice
Conditions: oral, once a day, six times every week until the 15th day; start at average tumor volume 1450 mm^3; FIG. 42A-C
Description: Human gastric cancer cells MGC-803 were subcutaneously planted into the armpit of nude mice. The test drugs 17bNF-0 and 17bNF-II were separately administrated orally when the average tumor volume reached 1450 mm^3. Drugs were given once a day, six times every week until the 15th day. CMC (drug-carrier; 0.5%) was used as the blank control. Tumor volumes were measured once about every three days (FIG. 42A), and the nude mice were photographed on the 22th day (FIG. 42B), and the nude mice were sacrificed on the 22th day. The tumors were dissected out from the nude mice and photographed (FIG. 42C).

COC1C(O)[C@H](O[C@H]2CC[C@@]3(C)[C@H](CC[C@@H]4[C@@H]3CC[C@]3(C)[C@@H](C5=CC(=O)OC5)CC[C@]43O)C2)OC(C)[C@@H]1O (stereo partly drawn) [17bNF-0, (3β, 5β)-3-[(6-deoxy-3-O-methyl-α-L-glucopyranosyl)oxy]-14-hydroxycard-20(22)-enolide]
anticancer activities in nude mice (tumor volume): very high anticancer activities

From patent US11091510B2, “Crystal characteristics, preparation processes and anticancer applications of 17beta-neriifolin crystal forms” (EnKang Pharmaceuticals (Guangzhou), Ltd., priority 2017, dated 2021)
